Patent US20170226072A1, “1,4-Disubstituted Piperidines, 1,4-Disubstituted Piperazines, 1,4-Disubstituted Diazepines, and 1,3-Disubstituted Pyrrolidine Compounds” (University of Kentucky Research Foundation, priority 2013, published 2017)
Several values for one entry are separate records, joined by “and”; a condition that tells them apart may be missing. Identical values can stand only once.

Legend:
hERG channel = target: T1, hERG channel (Homo sapiens, UniProt Q12809); assay: [3H]Dofetilide binding assay, HEK-293 cell membrane preparation; conditions: HEK-293 cell membranes expressing hERG, 5 nM [3H]dofetilide; read-out: hERG [3H]Dofetilide Binding Inhibition Mean ± SEM (IC50)
T1 construct: expressed in transfected cells
T1 sequence (Q12809 whole entry): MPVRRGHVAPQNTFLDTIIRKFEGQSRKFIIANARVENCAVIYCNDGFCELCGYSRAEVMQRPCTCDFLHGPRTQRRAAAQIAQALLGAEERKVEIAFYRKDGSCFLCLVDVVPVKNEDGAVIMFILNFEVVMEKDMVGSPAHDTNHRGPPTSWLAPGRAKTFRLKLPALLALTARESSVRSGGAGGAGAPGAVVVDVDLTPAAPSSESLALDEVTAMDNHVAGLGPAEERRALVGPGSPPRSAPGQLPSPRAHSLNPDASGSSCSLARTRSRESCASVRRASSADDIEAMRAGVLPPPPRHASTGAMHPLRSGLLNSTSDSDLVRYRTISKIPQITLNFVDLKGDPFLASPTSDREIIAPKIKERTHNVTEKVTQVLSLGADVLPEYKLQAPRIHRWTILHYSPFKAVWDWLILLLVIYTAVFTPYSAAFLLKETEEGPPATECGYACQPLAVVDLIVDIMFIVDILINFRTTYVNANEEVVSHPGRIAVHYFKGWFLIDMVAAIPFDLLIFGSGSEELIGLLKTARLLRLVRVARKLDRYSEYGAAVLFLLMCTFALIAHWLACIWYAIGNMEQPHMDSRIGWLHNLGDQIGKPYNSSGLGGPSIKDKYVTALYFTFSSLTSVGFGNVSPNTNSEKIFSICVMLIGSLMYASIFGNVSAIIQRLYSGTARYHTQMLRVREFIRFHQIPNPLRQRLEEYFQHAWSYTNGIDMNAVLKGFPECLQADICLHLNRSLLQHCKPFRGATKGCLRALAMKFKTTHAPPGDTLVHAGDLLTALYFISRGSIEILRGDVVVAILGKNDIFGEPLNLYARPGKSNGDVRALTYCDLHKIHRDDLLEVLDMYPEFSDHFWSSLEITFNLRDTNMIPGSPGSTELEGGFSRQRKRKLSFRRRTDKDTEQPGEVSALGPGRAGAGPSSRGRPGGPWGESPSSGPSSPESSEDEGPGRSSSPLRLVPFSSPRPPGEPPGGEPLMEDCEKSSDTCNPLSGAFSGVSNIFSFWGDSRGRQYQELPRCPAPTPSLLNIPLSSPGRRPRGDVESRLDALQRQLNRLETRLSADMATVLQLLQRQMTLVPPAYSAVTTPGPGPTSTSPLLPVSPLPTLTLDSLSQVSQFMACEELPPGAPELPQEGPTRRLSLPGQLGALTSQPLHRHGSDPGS
Procedure: [^3H]Dofetilide Binding Assay, HEK-293 Cell Membrane Preparation
[^3H]Dofetilide binding assays were conducted using commercially available HEK-293 cell membranes which stably express the hERG channel. Membranes were suspended in assay buffer (50 mM Tris, 10 mM KCl, 1 mM MgCl2, pH 7.4) prior to the experiment. Assays were performed in duplicate in a total volume of 250 μL. Aliquots of the HEK-293 cell membrane suspension which contained 5 μg membrane protein were added to tubes containing assay buffer, 5 nM [^3H]dofetilide and a range of concentrations of analog (10 nM-100 μM). Nonspecific binding was determined in the presence of amitriptyline (1 mM). Samples were incubated for 1 hr. at 24° C., followed by rapid filtration. Radioactivity retained by the filters was determined by liquid scintillation spectrometry as described above for the [^3H]DA uptake assay. The affinity for the [^3H]dofetilide binding site on the hERG channel expressed in the HEK-293 cellular membrane was determined from the analog concentration response curves.

VMAT2 [1] = target: T2, VMAT2 (Rattus norvegicus, UniProt Q01827); assay: [3H]Dihydrotetrabenazine ([3H]DTBZ) binding assay, vesicular preparation; conditions: rat brain synaptic vesicles, 3 nM [3H]DTBZ; read-out: Inhibition of [3H]DTBZ binding (Ki) VMAT2
T2 construct: conducted using isolated synaptic vesicle preparations; from tissue; host or cells: rat striatum, isolated synaptic vesicles
T2 sequence (Q01827 whole entry): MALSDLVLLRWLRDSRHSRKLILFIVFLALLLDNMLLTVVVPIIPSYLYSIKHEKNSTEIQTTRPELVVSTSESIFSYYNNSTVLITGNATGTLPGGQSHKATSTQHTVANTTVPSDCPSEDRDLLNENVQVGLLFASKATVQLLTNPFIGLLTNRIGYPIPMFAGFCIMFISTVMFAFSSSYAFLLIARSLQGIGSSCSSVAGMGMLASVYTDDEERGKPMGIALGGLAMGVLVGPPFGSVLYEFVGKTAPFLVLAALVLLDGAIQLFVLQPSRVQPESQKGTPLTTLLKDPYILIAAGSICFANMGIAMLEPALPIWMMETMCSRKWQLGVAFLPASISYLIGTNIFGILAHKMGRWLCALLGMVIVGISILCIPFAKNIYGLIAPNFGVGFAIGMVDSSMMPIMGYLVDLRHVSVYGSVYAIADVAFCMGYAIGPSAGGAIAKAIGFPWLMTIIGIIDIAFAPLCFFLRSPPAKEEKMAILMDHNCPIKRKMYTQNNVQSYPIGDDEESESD
Procedure: [^3H]Dihydrotetrabenazine ([^3H]DTBZ) Binding Assay, Vesicular Preparation
The resulting supernatant (S1) was then centrifuged at 22,000 g for 10 min at 4° C. The synaptosomal pellets (P2) were homogenized in 18 mL of ice-cold Milli-Q water and exposed for 5 min for lysing synaptosomes. Osmolarity was restored by addition of 2 mL of 25 mM HEPES with 100 mM dipotassium tartrate (pH 7.5). Samples were centrifuged at 20,000 g for 20 min at 4° C. to remove lysed synaptosomal membranes. MgSO4 (1 mM) was added to the supernatant (S3), and was centrifuged at 100,000 g for 45 min at 4° C. […] Aliquot parts (100 μL) of suspension of vesicle membrane protein were incubated in assay buffer (25 mM HEPES, 100 mM dipotassium tartrate, 5 mM MgSO4, 0.1 mM EDTA and 0.05 mM EGTA, pH 7.5, at 25° C.) in the presence of 3 nM [^3H]DTBZ and at least 7 concentrations (1 nM-1 mM) of compound for 1 hr at room temperature. Nonspecific binding was determined in the presence of 20 μM tetrabenazine, a standard compound. Assays were performed in duplicate using a 96-well plate format. Reactions were terminated by filtration of samples on a Unifilter-96 GF/B filter plates (presoaked in 0.5% polyethylenimine), using a FilterMate harvester (Packard BioScience Co., Meriden, Conn.).
After washing 5 times with 350 μL of the ice-cold wash buffer (25 mM HEPES, 100 mM dipotassium tartrate, 5 mM MgSO4 and 10 mM NaCl, pH 7.5), filter plates were dried, sealed and each well filled with 40 μL Packard's MicroScint 20 cocktail. Bound [^3H]DTBZ was measured using a Packard TopCount NXT scintillation counter with a Packard Windows NT based operating system.

VMAT2 [2] = target: T2, VMAT2; assay: [3H]Dopamine ([3H]DA) uptake assay, vesicular preparation; assay type: biochemical
Procedure: [^3H]Dopamine ([^3H]DA) Uptake Assay, Vesicular Preparation
Homogenates were centrifuged (2,000 g for 10 min at 4° C.), and then the supernatants were centrifuged (10,000 g for 30 min at 4° C.). Pellets were resuspended in 2 ml of 0.32 M sucrose solution and subjected to osmotic shock by adding 7 ml of ice-cold MilliQ water to the preparation. After 1 min, osmolarity was restored by adding 900 μl of 0.25 M HEPES buffer and 900 μl of 1.0 M potassium tartrate solution. Samples were centrifuged (20,000 g for 20 min at 4° C.), and the supernatants were centrifuged (55,000 g for 1 hr at 4° C.), followed by addition of 100 μl of 10 mM MgSO4, 100 μl of 0.25 M HEPES and 100 μl of 1.0 M potassium tartrate solution prior to the final centrifugation (100,000 g for 45 min at 4° C.). Final pellets were resuspended in 2.4 ml of assay buffer (25 mM HEPES, 100 mM potassium tartrate, 50 μM EGTA, 100 μM EDTA, 1.7 mM ascorbic acid, 2 mM ATP-Mg^2+, pH 7.4). Aliquots of the vesicular suspension (100 μl) were added to tubes containing assay buffer, various concentrations of compound (0.1 nM-10 mM) and 0.1 μM [^3H]DA in a final volume of 500 and incubated at 37° C. for 8 min. […] Reactions were terminated by filtration, and radioactivity retained by the filters was determined by liquid scintillation spectrometry (Tri-Carb 2100TR liquid scintillation analyzer; PerkinElmer Life and Analytical Sciences, Boston, Mass.).

[3] = target: T3, dopamine transporter (DAT) (Rattus norvegicus, UniProt P23977); assay: [3H]DA uptake assay, striatal synaptosomal preparation; assay type: biochemical; conditions: rat striatal synaptosomes; read-out: DAT [3H]DA Uptake Inhibition Mean ± SEM (Ki)
T3 construct: from tissue; host or cells: rat striatum, synaptosomes
T3 sequence (P23977 whole entry): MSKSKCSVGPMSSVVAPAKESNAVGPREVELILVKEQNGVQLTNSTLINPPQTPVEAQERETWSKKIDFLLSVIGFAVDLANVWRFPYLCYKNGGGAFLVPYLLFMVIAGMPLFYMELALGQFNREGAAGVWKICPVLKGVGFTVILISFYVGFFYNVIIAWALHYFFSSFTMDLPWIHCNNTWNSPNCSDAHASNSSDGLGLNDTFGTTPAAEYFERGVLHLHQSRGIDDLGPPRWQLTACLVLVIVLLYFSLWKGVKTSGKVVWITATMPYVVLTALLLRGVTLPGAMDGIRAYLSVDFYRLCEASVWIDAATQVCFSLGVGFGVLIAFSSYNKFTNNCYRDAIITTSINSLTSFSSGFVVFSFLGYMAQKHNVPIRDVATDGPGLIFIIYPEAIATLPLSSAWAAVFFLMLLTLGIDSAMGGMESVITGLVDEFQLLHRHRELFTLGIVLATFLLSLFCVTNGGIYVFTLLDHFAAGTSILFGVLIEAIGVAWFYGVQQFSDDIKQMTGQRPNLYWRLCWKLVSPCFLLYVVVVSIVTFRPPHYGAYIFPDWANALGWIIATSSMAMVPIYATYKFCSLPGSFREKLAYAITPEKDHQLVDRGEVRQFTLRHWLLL
Procedure: [^3H]DA and [^3H]5-HT Uptake Assay, Synaptosomal Preparation
[^3H]DA and [^3H]5-HT uptake into striatal synaptosomes was determined to evaluate compound inhibition of the dopamine transporter (DAT) and the serotonin transporter (SERT), respectively. […] Homogenates were centrifuged at 2000 g for 10 min at 4° C., and resulting supernatants were centrifuged at 20,000 g for 17 min at 4° C. […] Assays were performed in duplicate in a total volume of 500 (for DAT assays) or 250 μL (for SERT assays). […] Reactions were terminated by addition of 3 mL of ice-cold assay buffer and subsequent filtration and radioactivity retained by the filters was determined by liquid scintillation spectrometry (Tri-Carb 2100TR liquid scintillation analyzer; PerkinElmer Life and Analytical Sciences, Boston, Mass.).

[4] = rat striatal synaptic vesicles, 0.1 μM [3H]DA, read-out: [3H]DA Uptake (Ki) VMAT2
[5] = synaptic vesicle preparations, summary of Table 1, read-out: inhibition of [3H]DA uptake, Ki

Row | Compound | IC50 (hERG channel) | Ki (VMAT2 [1]) | Ki (VMAT2 [2]; [4]) | Ki [3] | Ki (VMAT2 [2]; [5])
1 | COc1ccccc1CCN1CCC(CCc2ccccc2)CC1 [Compound 1, 1-(2-methoxyphenethyl)-4-phenethylpiperidine] | 534 ± 142 nM | 255 ± 26 nM | 30 ± 2 nM |  | 
2 | COc1ccc(CCN2CCC(CCc3ccccc3)CC2)cc1OC [Compound 3] | 402 ± 72.7 nM | 2800 ± 110 nM | 56 ± 9 nM |  | 
3 | COc1ccc(CCN2CCC(CCc3ccccc3)CC2)cc1 [Compound 4] | 622 ± 215 nM | 1620 ± 190 nM | 46 ± 3.7 nM |  | 
4 | COc1ccccc1CCN1CCC(Cc2ccccc2)CC1 [Compound 5] |  | 2760 ± 310 nM | 130 ± 15 nM |  | 
5 | COc1cccc(CCN2CCC(Cc3ccccc3)CC2)c1 [Compound 6] | 442 ± 221 nM | 1530 ± 100 nM | 77 ± 9.8 nM |  | 
6 | COc1ccc(CCN2CCC(Cc3ccccc3)CC2)cc1OC [Compound 7] |  | 2990 ± 170 nM | 240 ± 34 nM |  | 
7 | COc1ccc(CCN2CCC(Cc3ccccc3)CC2)cc1 [Compound 8] |  | 1940 ± 430 nM | 180 ± 11 nM |  | 
8 | COc1cc(OC)c(OC)cc1CCC1CCN(CCc2ccccc2)CC1 [Compound 9] | 8100 ± 585 nM | 380 ± 49 nM | 94 ± 9.6 nM | 5460 ± 120 nM | 
9 | Clc1ccccc1CCN1CCC(CCc2ccccc2)CC1 [Compound 10] | 666 ± 26.5 nM | 380 ± 5.8 nM | 47 ± 6.3 nM |  | 
10 | Fc1ccc(CCN2CCC(CCc3ccccc3)CC2)cc1 [Compound 11] | 353 ± 36 nM | 1820 ± 79 nM | 32 ± 3.8 nM |  | 
11 | COc1cccc(CCC2CCN(CCc3ccccc3)CC2)c1 [Compound 14] | 631 ± 88.8 nM | 320 ± 15 nM | 56 ± 8.6 nM |  | 
12 | COc1cccc(CCC2CCN(CCc3ccccc3OC)CC2)c1 [Compound 15] | 790 ± 64.1 nM | 320 ± 55 nM | 40 ± 7.5 nM |  | 
13 | COc1cccc(CCC2CCN(CCc3cccc(OC)c3)CC2)c1 [Compound 16] | 564 ± 131 nM | 230 ± 19 nM | 85 ± 10 nM |  | 
14 | COc1ccc(CCN2CCC(CCc3cccc(OC)c3)CC2)cc1 [Compound 17] | 600 ± 87.8 nM | 450 ± 130 nM | 130 ± 23 nM |  | 
15 | COc1cccc(CCC2CCN(CCc3ccccc3Cl)CC2)c1 [Compound 18] |  | 460 ± 98 nM | 420 ± 49 nM |  | 
16 | COc1cccc(CCC2CCN(CCc3ccc(F)cc3)CC2)c1 [Compound 19] | 409 ± 42.9 nM | 960 ± 47 nM | 69 ± 4 nM |  | 
17 | COc1ccc(CCC2CCN(CCc3ccccc3)CC2)cc1 [Compound 20] |  | 510 ± 87 nM | 110 ± 7 nM |  | 
18 | COc1ccc(CCC2CCN(CCc3ccccc3OC)CC2)cc1 [Compound 21] | 323 ± 96.4 nM | 420 ± 19 nM | 83 ± 9 nM |  | 
19 | COc1ccc(CCC2CCN(CCc3cccc(OC)c3)CC2)cc1 [Compound 22] | 479 ± 228 nM | 230 ± 47 nM | 75 ± 4 nM |  | 

Row | Compound | IC50 (hERG channel) | Ki (VMAT2 [1]) | Ki (VMAT2 [2]; [4]) | Ki [3] | Ki (VMAT2 [2]; [5])
20 | COc1ccc(CCC2CCN(CCc3ccc(OC)cc3)CC2)cc1 [Compound 23] |  | 2470 ± 270 nM | 160 ± 12 nM |  | 
21 | COc1ccc(CCC2CCN(CCc3ccc(F)cc3)CC2)cc1 [Compound 25] | 1420 ± 384 nM | 470 ± 67 nM | 60 ± 5 nM |  | 
22 | COc1cccc(CCN2CCC(CCc3ccccc3OC)CC2)c1 [Compound 26, 1-(3-methoxyphenethyl)-4-(2-methoxyphenethyl)piperidine] | 607 ± 25.5 nM | 150 to 190 nM and 150 nM | 13 ± 1.5 nM |  | 9 to 20 nM
23 | COc1ccc(CCN2CCC(CCc3ccccc3OC)CC2)cc1 [Compound 27] | 479 ± 109 nM | 500 ± 100 nM | 43 ± 2.8 nM |  | 
24 | COc1ccccc1CCC1CCN(CCc2ccccc2Cl)CC1 [Compound 28, 1-(2-chlorophenethyl)-4-(2-methoxyphenethyl)piperidine] | 1190 ± 181 nM | 190 ± 20 nM | 20 ± 3 nM | 1250 ± 307 nM | 9 to 20 nM
25 | Fc1ccc(CCC2CCN(CCc3ccccc3)CC2)c(F)c1 [Compound 30] | 552 ± 99.1 nM | 530 ± 110 nM | 53 ± 5.5 nM |  | 
26 | COc1ccccc1CCN1CCC(CCc2ccc(F)cc2F)CC1 [Compound 31] | 317 ± 24.8 nM | 350 ± 48 nM | 41 ± 12 nM |  | 
27 | COc1cccc(CCN2CCC(CCc3ccc(F)cc3F)CC2)c1 [Compound 32] | 327 ± 35.3 nM | 270 ± 15 nM | 29 ± 5.5 nM |  | 
28 | COc1ccc(CCN2CCC(CCc3ccc(F)cc3F)CC2)cc1 [Compound 33] | 1070 ± 152 nM | 1300 ± 170 nM | 70 ± 5.1 nM |  | 
29 | Fc1ccc(CCC2CCN(CCc3ccccc3Cl)CC2)c(F)c1 [Compound 34] |  | 240 ± 38 nM | 110 ± 19 nM |  | 
30 | Fc1ccc(CCN2CCC(CCc3ccc(F)cc3F)CC2)cc1 [Compound 35] | 201 ± 32.7 nM | 1450 ± 240 nM | 43 ± 14 nM |  | 
31 | COc1ccc(CCC2CCN(CCc3ccccc3)CC2)c(F)c1 [Compound 36] |  | 290 ± 64 nM | 120 ± 8.5 nM |  | 
32 | COc1ccc(CCC2CCN(CCc3ccccc3OC)CC2)c(F)c1 [Compound 37] | 2870 ± 760 nM | 330 ± 18 nM | 76 ± 10 nM |  | 
33 | COc1cccc(CCN2CCC(CCc3ccc(OC)cc3F)CC2)c1 [Compound 38, 4-(2-fluoro-4-methoxyphenethyl)-1-(3-methoxyphenethyl)piperidine] | 479 ± 64.3 nM | 190 ± 9 nM | 83 ± 3.8 nM | 2940 ± 270 nM | 
34 | COc1ccc(CCN2CCC(CCc3ccc(OC)cc3F)CC2)cc1 [Compound 39] | 299 ± 45.9 nM | 1610 ± 78 nM | 44 ± 3.3 nM |  | 
35 | COc1ccc(CCC2CCN(CCc3ccccc3Cl)CC2)c(F)c1 [Compound 40] | 1410 ± 166 nM | 230 ± 15 nM | 67 ± 21 nM |  | 
36 | COc1ccc(CCC2CCN(CCc3ccc(F)cc3)CC2)c(F)c1 [Compound 41] | 3600 ± 1220 nM | 600 ± 75 nM | 60 ± 8.2 nM | 3480 ± 415 nM | 
37 | Fc1cc(F)cc(CCC2CCN(CCc3ccccc3)CC2)c1 [Compound 42] | 258 nM | 1100 ± 87 nM | 51 ± 3.5 nM |  | 
38 | COc1ccccc1CCN1CCC(CCc2cc(F)cc(F)c2)CC1 [Compound 43] | 427 ± 134 nM | 410 ± 38 nM | 34 ± 3.9 nM |  | 

Row | Compound | IC50 (hERG channel) | Ki (VMAT2 [1]) | Ki (VMAT2 [2]; [4]) | Ki [3] | Ki (VMAT2 [2]; [5])
39 | COc1cccc(CCN2CCC(CCc3cc(F)cc(F)c3)CC2)c1 [Compound 44] | 477 ± 42.9 nM | 250 ± 3 nM | 28 ± 2.7 nM | 1910 ± 568 nM | 
40 | COc1ccc(CCN2CCC(CCc3cc(F)cc(F)c3)CC2)cc1 [Compound 45] |  | 2030 ± 130 nM | 120 ± 28 nM |  | 
41 | Fc1cc(F)cc(CCC2CCN(CCc3ccccc3Cl)CC2)c1 [Compound 46] |  | 660 ± 58 nM | 180 ± 68 nM |  | 
42 | Fc1ccc(CCN2CCC(CCc3cc(F)cc(F)c3)CC2)cc1 [Compound 47] | 440 ± 41.2 nM | 1430 ± 280 nM | 68 ± 16 nM |  | 
43 | c1ccc(CCC2CCN(Cc3ccccc3)CC2)cc1 [Compound 48] |  | 21700 ± 2080 nM | 190 ± 63 nM |  | 
44 | COc1ccccc1CN1CCC(CCc2ccccc2)CC1 [Compound 49] | 568 ± 122 nM | 9360 ± 1320 nM | 70 ± 7.5 nM |  | 
45 | COc1cccc(CN2CCC(CCc3ccccc3)CC2)c1 [Compound 50] |  | 12700 ± 4280 nM | 190 ± 20 nM |  | 
46 | COc1ccc(CN2CCC(CCc3ccccc3)CC2)cc1 [Compound 51] |  | 6230 ± 560 nM | 250 ± 27 nM |  | 
47 | Clc1ccccc1CN1CCC(CCc2ccccc2)CC1 [Compound 52] |  | 44500 ± 17800 nM | 270 ± 42 nM |  | 
48 | Fc1ccc(CN2CCC(CCc3ccccc3)CC2)cc1 [Compound 53] |  | 10100 ± 580 nM | 210 ± 12 nM |  | 
49 | COc1ccc(CCN2CCN(CCc3ccc(OC)cc3)CC2)cc1 [Compound 57] |  | 6630 ± 840 nM | 410 ± 5 nM |  | 
50 | Clc1ccccc1CCN1CCN(CCc2ccccc2)CC1 [Compound 63] | 2840 ± 287 nM | 1590 ± 260 nM | 63 ± 6.9 nM | 10400 ± 1850 nM | 
51 | c1ccc(CCN2CCCN(CCc3ccccc3)CC2)cc1 [Compound 65] |  | 3170 ± 550 nM | 190 ± 17 nM |  | 
52 | COc1ccccc1CCN1CCCN(CCc2ccccc2OC)CC1 [Compound 66] |  | 2020 ± 110 nM | 190 ± 26 nM |  | 
53 | COc1cccc(CCN2CCCN(CCc3cccc(OC)c3)CC2)c1 [Compound 67] | 1120 ± 85.7 nM | 2240 ± 530 nM | 100 ± 10 nM |  | 
54 | COc1ccc(CCN2CCCN(CCc3ccc(OC)cc3)CC2)cc1 [Compound 68] |  | 2880 ± 250 nM | 250 ± 15 nM |  | 
55 | Clc1ccccc1CCN1CCCN(CCc2ccccc2Cl)CC1 [Compound 69] |  | 930 ± 21 nM | 170 ± 25 nM |  | 
56 | Fc1ccc(CCN2CCCN(CCc3ccc(F)cc3)CC2)cc1 [Compound 70] | 57 ± 2.7 nM | 5050 ± 770 nM | 85 ± 5.2 nM |  | 
